Holding throughout (assay): NCI tumour cell line growth inhibition, 48 h
Assay [1] relates to SF-268 CNS.
Assay [2] concerns TK-10 renal.
Assay [3] concerns SW-620 colon.
In assay [4] the test system is SK-OV-3 ovarian.
Assay [5] has as its system A549 NSCLC.
Assay [6] concerns MALME-3M melanoma.
In assay [7] the test system is LOX IMVI melanoma.
Assay [8] concerns SK-MEL-28 melanoma.
Assay [9] concerns RXF 393 renal.
Assay [10] concerns MOLT-4 leukemia.

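Exposure lasted 48 hours, with cells grown in 96-well plates and compounds tested at five concentrations. GI50 = concentration required for 50% inhibition of growth. The concentration for full growth arrest is given as TGI.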

Turning to `CCN(CC)CCCC(C)Nc1c2ccc(Cl)cc2nc2ccc(O)cc12` (stereo not given), the GI50 in assay [1] is 2040 nM; in assay [2], 1740 nM; in assay [3] it was 1160 nM; in assay [4], 3.12 µM; in assay [5], 1470 nM; in [6] it was 1420 nM. For the same compound, the GI50 in [7] is 1600 nM; in [8], 1600 nM; in [9] it was 1610 nM; in assay [10], 1310 nM. Besides, the TGI in [1] is 11.3 µM; in assay [2] it was 3.91 µM; in assay [3] it was 4.13 µM; in [4] it was 16 µM; in assay [5], 3.67 µM; in assay [6] it was 2.87 µM. In addition, the TGI in assay [7] worked out at 3.22 µM; in assay [8] it was 2.98 µM; in assay [9] it was 4.27 µM; in assay [10], 13.6 µM.
Consider `O=C(CC1(O)C(=O)Nc2c(Cl)ccc(Cl)c21)c1ccc(F)cc1` (stereo not given), for which the TGI in assay [1], in assay [2], in assay [3], in [4], in assay [5] and in [6] was above 100 µM throughout. In addition, the TGI is above 100 µM in [7], above 100 µM in assay [8], 92.2 µM in assay [9] and 95.6 µM in assay [10].
As for `NC(=O)NS(=O)(=O)c1ccc(N2N=C(C(F)(F)F)CC2c2cc(C(F)(F)F)cc(C(F)(F)F)c2)cc1` (stereo not given), the GI50 in assay [1] was 2960 nM; in assay [2] it was 9250 nM; in assay [3] it was 4100 nM; in assay [4] it was 7.82 µM; in assay [5], 3360 nM; in assay [6], 13900 nM. In addition, the GI50 is 5760 nM in assay [7], 4390 nM in assay [8], 2860 nM in assay [9] and 4730 nM in assay [10]. In addition, the TGI came out at 12.3 µM in assay [1]; 24.8 µM in assay [2]; 15.7 µM in assay [3]; 21.3 µM in assay [4]; 13.5 µM in assay [5]; 39.9 µM in assay [6]. Further, the TGI in assay [7] is 19.1 µM; in assay [8], 16.7 µM; in assay [9], 5.77 µM; in [10] it was 55.5 µM.
For `O=[N+]([O-])c1ccc(C=NC2CCCCC2)cc1`, the TGI in [1], in assay [2], in assay [3], in assay [4], in assay [5] and in assay [6] was above 100 µM each time. Further, the TGI in assay [7], in [8], in assay [9] and in assay [10] was above 100 µM in each case.
Regarding `C#CCNC(=O)c1cccc2c1cc(C)n2-c1nc2c(c(NCc3ccccc3)n1)CCCC2`, the GI50 in assay [1] was 25.7 nM; in assay [2] it was 34.5 nM; in assay [3], 28.9 nM; in assay [4], 0.056 µM; in assay [5], 38.1 nM; in assay [6], 3.11 nM. The GI50 in [7] is 10.4 nM; in assay [8], 35 nM; in [9], 12.2 nM; in assay [10], 22.9 nM. The TGI in [1] came out at 0.0771 µM; in [2] it was 0.111 µM; in assay [3], 0.142 µM; in assay [4], 0.232 µM; in assay [5], 0.124 µM; in assay [6], 0.0114 µM. In addition, the TGI stood at 0.0256 µM in [7], 0.123 µM in [8], 0.0406 µM in assay [9] and 0.075 µM in assay [10].
